From patent US20070122437A1, “Novel insecticide composition and use thereof particularly for impregnating mosquito nets, fly screens and the like” (priority 2004, published 2007)

Legend:
Type in all cases: in vivo
[1] = system: Aedes aegypti females, strain sensitive to pyrethroids; assay: Irritability test (time for first take-off in cone on impregnated paper), strain sensitive to pyrethroids
Text: (§1) In order to evaluate the irritant effect or irritability, an Ae. aegypti female which is not gorged and is from 2 to 5 days old is introduced into a polyethylene cone the bottom of which is an impregnated paper. After an adaptation time of 60 seconds, the time for first take-off is noted and recorded as time for First Take-off (or FT). After 256 seconds, if the mosquito has not taken off, the test is stopped. For each test, the flying activity of 50 females is noted, and each test is repeated three times. The females are sorted into classes according to their time for first take-off and the cumulative first take-off frequencies are used in order to calculate the time at which 50% of the females have taken off (FT50). All the tests take place under controlled conditions, at 27° C.±2 and 80% ±10 humidity.
(§2) The irritability tests were carried out (a female in a cone in contact with the impregnated surface, reading of the time for first take-off after the Ist minute has passed, 50 females per test) according to the following protocol.
Ae. aegypti females which have not fed on blood, from 2 to 5 days old, were introduced individually into plastic cones applied to treated filter papers. After an adaptation time of exactly 60 seconds, the time which has passed between the first landing and the next take-off was defined as being <<the first take-off time>> (FT). The observation was not extended for the rare mosquitoes which had not taken off after 256 seconds. For each test, 50 mosquitoes were tested individually. A simple computer program using the internal clock of a laptop computer was used in order to carry out this test and in order to analyze the results grouping the mosquitoes into classes for time of first take-off. The time at which 50% of the mosquitoes have left the treated surface (median first take-off time, FT50) and its confidence interval at 95% were then determined using the log-probit method.

[2] = system: Aedes aegypti females, strain sensitive to pyrethroids; assay: WHO tube test on impregnated paper (KD effect and 24 h mortality), strain sensitive to pyrethroids
Text: (§3) Determination of the LC100 usually takes place according to the standard tube test protocol defined by the World Health Organization (WHO) (6). Briefly, the tube test is composed of an observation tube and an exposure tube (the two tubes are removable) separated by a slide unit equipped with a partition making it possible to obstruct or re-establish the passage between the two tubes. The other end of each tube is sealed by a ventilation plug equipped with a mesh screen. Each tube is lined, for the purposes of the tests, with Whatman paper (standard qualitative filter paper ref 1002 917 or else Whatman N°1) held on the edges by two metal rings. The exposure tube receives paper impregnated with insecticide (impregnated surface on the inside) while the observation tube receives non-impregnated (neutral) paper. In order to impregnate the papers in a homogeneous fashion and to the saturation limit, 2 ml of solution constituted by 0.66 ml of silicone and 1.34 ml of acetone solution are used. For an impregnation at X mg/m^2, the quantity of active ingredient to be deposited on the paper (12 cm×15 cm i.e. 0.018 m^2) is 0.018.X mg of active ingredient (quantity to be adjusted as a function of the degree of purity of the technical product). This quantity of active ingredient is then diluted in 1.34 ml of acetone solution to which 0.66 ml of silicone is then added. The paper dries at ambient temperature, in the dark for 12 hours before the start of the test. The concentrations are expressed in % of active ingredient relative to the volume of silicone on the paper (as the acetone is volatile).
In order to evaluate the mortality and the KD effect, 25 Ae. aegypti females which are not gorged and are from 2 to 5 days old are introduced into the exposure tube and are left in contact for one hour at 27° C.±2 and 80%±10 humidity. The number of mosquitoes which have fallen to the bottom of the tube is noted every 10 minutes. After 60 minutes, the mosquitoes are transferred into the observation tube, with sugared juice and placed in an incubator at 27° C.±2 and 80% ±10 humidity. The mortality is noted at 24 hours. The time at which 50% of the females are knocked-down (KDT50) as well as its confidence interval are determined using a log-probit analysis (7). Four tubes are tested per solution and each test is repeated three times (triple test method).
The tarsal contact tests were implemented using filter paper (standard qualitative filter paper ref 1002 917 or else Whatman N° 1) impregnated with technical quality products according to the recommendations of the World Health Organization (WHO, 6). The filter papers were treated using solutions of insecticide and/or insect repellent diluted in acetone with silicone oil as support. The impregnation of the paper was carried out with 2 ml of the solutions to be tested, then the paper was dried for 12 h. The mortality and the KD effect resulting from the tarsal contacts with treated filter paper were measured using the adult mosquito test tubes of the WHO. The concentrations were expressed in weight of active ingredient relative to the surface of treated filter paper surface. Batches of 25 Ae. aegypti females which have not fed on blood, from 2 to 5 days old, were introduced into holding tubes and kept for 1 h (adaptation time) at 27±2° C. and 80±10% humidity. The mosquitoes were then transferred into the exposure tube and placed under dimmed light for 1 h. For the purpose of comparison with pyrethroids, which are rapid action insecticides, the number of mosquitoes knocked down at the bottom of the tubes was counted at regular intervals of 10 min. The time at which 50% of the mosquitoes are knocked down (KDT50) and its confidence interval at 95% were then determined using the log-probit method (7). The mortality was recorded after 24 hours of exposure. Each concentration was tested four times and each test was repeated three times with different groups of insects in order to consider inter-batch variability. […]

[3] = system: Aedes aegypti females, a strain resistant to pyrethroids (homozygous for the kdr gene); assay: WHO tube test on impregnated paper (KD effect and 24 h mortality), strain resistant to pyrethroids
Text: as §3, with “The concentrations are expressed in % of active ingredient relative to the volume of silicone on the paper (as the acetone is volatile).” left out
The tarsal contact tests were implemented using filter paper (standard qualitative filter paper ref 1002 917 or else Whatman N° 1) impregnated with technical quality products according to the recommendations of the World Health Organization (WHO, 6). […] The mortality and the KD effect resulting from the tarsal contacts with treated filter paper were measured using the adult mosquito test tubes of the WHO. […] For the purpose of comparison with pyrethroids, which are rapid action insecticides, the number of mosquitoes knocked down at the bottom of the tubes was counted at regular intervals of 10 min. […]

[4] = system: Aedes aegypti females, a strain resistant to pyrethroids (homozygous for the kdr gene); assay: Irritability test (time for first take-off in cone on impregnated paper), strain resistant to pyrethroids; conditions: 5.1 mg/m^2
Text: as §1, with “humidity. […]” for “humidity.”
as §2
Ae. aegypti females which have not fed on blood, from 2 to 5 days old, were introduced individually into plastic cones applied to treated filter papers. […] The time at which 50% of the mosquitoes have left the treated surface (median first take-off time, FT50) and its confidence interval at 95% were then determined using the log-probit method. […]

[5] = sensitive strain, impregnated paper

| SMILES | Irritability FT50 ([1]; 364 mg/m^2 on impregnated paper) | mortality at 364 mg/m2 ([2]; Aedes aegypti, 364 mg/m^2, 1 h contact, read after 24 h, sensitive strain) | insecticide effect (in words) ([2]; DEET alone, 364 mg/m^2) | mortality at 364 mg/m2 ([3]; 364 mg/m^2, 1 h contact, read after 24 h, resistant strain) | Irritability FT50 ([1]; 7.28 mg/m^2 on impregnated paper) | mortality at 7.28 mg/m2 ([2]; Aedes aegypti) | lethal concentration 30 (LC30) [2, 5] | mortality at 3.64 mg/m2 [3] | Irritability FT50 ([1]; 0.728 mg/m^2 (LC30)) | Irritability FT50 ([1]; 5.1 mg/m^2 (LC100)) | mortality at 0.728 mg/m2 ([2]; Aedes aegypti, 0.728 mg/m^2, 1 h contact, read after 24 h, sensitive strain) | mortality at 5.1 mg/m2 ([2]; Aedes aegypti, 5.1 mg/m^2, 1 h contact, read after 24 h, sensitive strain) | LC100 [2, 5] | Irritability FT50 [4] | mortality at 5.1 mg/m2 ([3]; 5.1 mg/m^2, 1 h contact, read after 24 h, resistant strain) |
| --- | --- | --- | --- | --- | --- | --- | --- | --- | --- | --- | --- | --- | --- | --- | --- |
| CCN(CC)C(=O)c1cccc(C)c1 [DEET, N,N-diethyl-meta-toluamide] | 24.2 s | 0% | does not itself have any insecticide effect | 0% | – | – | – | – | – | – | – | – | – | – | – |
| CNC(=O)Oc1ccccc1OC(C)C [Propoxur, 2-isopropyloxyphenolmethylcarbamate] | – | – | – | – | 133.9 s | 34% | 7.28 mg/m^2 | 34.5% | – | – | – | – | – | – | – |
| CC1(C)[C@H](C(=O)O[C@H](C#N)c2cccc(Oc3ccccc3)c2)[C@@H]1C=C(Br)Br [deltamethrin] | – | – | – | – | – | – | 0.728 mg/m^2 | – | 23.9 s | 16.9 s | 34% | 100% | 5.1 mg/m^2 | 34.98 s | 8% |
